Laboratory results as given in patent US20160129077A1, “Use of recombinant ganoderma immunoregulatory protein (rLZ-8) in preparation of drug for treating melanoma” (priority 2013, published 2016).
Like-named read-outs stand apart in the source and are kept apart here. Marks after values point to notes of the source that are not given here.

Assays:
metastatic melanoma = conditions: immune therapy; cited from earlier work
B16-F10 lung metastases = assay: B16-F10 melanoma lung metastasis model (tail vein injection) in Kunming mice; type: in vivo; conditions: DTIC 2.5 mg/kg
Description: DMEM, fetal bovine serum, PBS, trypsin-EDTA, DMSO, Tris-HCl buffer with pH 7.6 for rinsing, 0.05% trypsin, rLZ-8, and DTIC.
After the mice were put to death, lungs of the dead mice were dissected out and the number of black spots on surfaces of the lungs, formed by an aggregation of metastasis cell, was counted, so as to calculate the inhibition rate of the drug against the growth of the lung metastasis as: inhibition rate=(an average metastasis number of the negative contrast group−an average metastasis number of the drug administrated group)/the average metastasis number of the negative contrast group×100%. A time and the number of the dead mouse in each experiment group were recorded in detail, especially during administrating the drug continuously, until the negative contrast group was completely dead; and then, the survival states of the mice in the experiment groups and the contrast groups were analyzed. A survival rate was calculated according to the number of the dead mice in the other groups when all the mice of the negative contrast group were dead, based on a formula that survival rate=(a total number of the mice−the number of the dead mice)/the total number of the mice.

[1] = DTIC 2.5 mg/kg tail i.v., administration for 28 days
[2] = DTIC 2.5 mg/kg, administration for 56 days
[3] = DTIC 2.5 mg/kg, dead mice/animal number

Description for B16F10 orthotopic tumor: The mice were transplanted with a melanoma cells line B16-F10.
The mice melanoma cells B16-F10 were cultured in the DMEM containing 10% fetal bovine serum, at 37° C. in the CO2 thermostat incubator. 200 μl of B16-F10 cell suspension (containing 1×10^7 cells) was slowly subcutaneously injected into a dorsal-ventral side of the mouse through 1 ml syringe, so as to establish a model of mice transplanted with tumors. […] The rLZ-8 was injected once per day; the DTIC was continuously tail-intravenously injected for 5 days and injected for a second time after 3 weeks. During the experiment, living states of the mice were observed; the mice were weighed once every 7 days; blood samples were taken from tail veins of the mice every 2 weeks; volumes of the tumors, subcutaneously injected into the mice, were measured every 2 days; for each group, the tumors were dissected at an end of the experiment and weighed on the balance, with weights recorded. According to a formula that a tumor growth inhibition rate=(an average weight of the tumors of the physiological saline group−an average weight of the tumors of the drug administrated groups)/the average weight of the tumors of the physiological saline group, the inhibition rate of the rLZ-8 upon the growth of the orthotopic tumor was calculated.

ipilimumab: anti-CTLA-4 antibody, immune therapy for metastatic melanoma
Positive reaction rate (metastatic melanoma): about 10.9%

CN(C)/N=N/c1[nH]cnc1C(N)=O [DTIC, Dacarbazine, reference compound]
Survival rate when all mice of the negative contrast group were dead (B16-F10 lung metastases; 87th / 95th day after injecting the tumors): 10%
Tumor metastases inhibition rate (B16-F10 lung metastases; administration for 28 days): 32.04±1.27%
Tumor metastases inhibition rate (B16-F10 lung metastases; administration for 56 days): 58.43 ± 3.21%
Tumor volume (B16F10 orthotopic tumor; [1]): 0.19 ± 0.09** mm^3
Tumor weight (B16F10 orthotopic tumor; [1]): 0.23 ± 0.12 g
Tumor growth inhibition rate (B16F10 orthotopic tumor; DTIC 2.5 mg/kg, administration for 28 days): 81.26 ± 0.27^ %
Tumor growth inhibition rate (B16F10 orthotopic tumor; [2]): 64.42 ± 0.41^ %
Tumor volume (B16F10 orthotopic tumor; [2]): 0.73 ± 0.21* mm^3
Tumor weight (B16F10 orthotopic tumor; [2]): 0.87 ± 0.26 g
Mortality rate (administration for 28 days) (B16F10 orthotopic tumor; [3]): 0/10
Mortality rate (administration for 56 days) (B16F10 orthotopic tumor; [3]): 4/10
Body leukocyte number (B16F10 orthotopic tumor; tumor-bearing mice, tail vein blood, anti-tumor treatment experiment (28/56 days)): greatly decreased the body leukocyte number
